Data set [1] has as its system Experimental Bronchial Asthma Model. Nature of the data set: Experimental bronchial asthma model (ovalbumin-sensitized, airway resistance and asthmatic death). The class given is in vivo, Guinea pigs.
Protocol: Guinea pigs (female, Std:Hartley, 3 weeks old, 200 to 250 g) were individually housed in a plastic chamber (width, 200 mm; depth, 300 mm; height, 167 mm). Aqueous ovalbumin (10 mg/mL) was administered to the guinea pigs once a day for sensitization by 10 min. inhalation with a nebulizer (5B, Nippon Shoji K.K.: flow rate, 6 L/min.) at a dose of 10 mg/mL during 8 cosecutive days. On Day 7 after the final sensitization, the guinea pigs were housed in a plastic chamber and inhaled using a nebulizer with a solution of ovalbumin (10 mg/mL) in physiological saline for 1 min. for elicitation (Matsumoto, T., et al., The Journal of Pharmacology and Experimental Therapeutics, 269: 1236-1244, 1994). The number of animals employed in the experiment was set to the extent there are at least 6 as individuals escaping asthmatic death. A solution of a test metalloproteinase inhibitor (Compound No. 8, 15 mg/kg) in water for injection was administered subcutaneously twice, i.e., 24 hours and 2 hours prior to elicitation. Similarly, the solvent alone was also administered to a negative control group. A suspension of prednisolone (10 mg/kg) in 0.5% aqueous methyl cellulose was administered orally twice, i.e., 24 hours and 2 hours prior to elicitation. Similarly, the solvent alone was also administered to another control group.
The evaluation for efficacies was conducted in terms of airway resistance. For this purpose, an apparatus dedicated to the measurement of airway resistance (K.K. Medical Agent) was employed. Measurement includes setting a guinea pig in a test chamber under a not-anesthetized condition, applying sinusoidal pressure waves of 30 Hz components to a part below the neck of the animal from the back side of the chamber, measuring respiratory waves of 30 Hz components leaking through the mouth (volume of 30 Hz air flow passing through the respiratory tract) in front of the neck, and calculating airway resistance mechanically. Measurement was carried out immediately prior to the first drug treatment (24 hours before elicitation), just prior to elicitation, 10 minutes, 1, 2, 4, 6, and 8 hours post-elicitation.
It was visually observed by a person carrying out said test in terms of the appearance of cyanosis or suffocative death (asthmatic death) due to respiratory obstruction.
Guinea pigs were sensitized with ovalbumin and asthma was induced on Day 7 after final sensitization in the same manner as in Example 18. The number of animals employed in the experiment was set to the extent there are at least 6 as individuals escaping asthmatic death (8 to 11 animals/group). In the same manner as in Example 18, the animals were measured for airway resistance mechanically and each percent change (%) in airway resistance was calculated (each value just prior to elicitation was set as 100%). Each percent amelioration in airway resistance was calculated from the percent changes in airway resistance according to the following formula: Amelioration in Airway Resistance (%) = 1 -[((Percent Change in Airway Resistance after Drug-Administration)-(Value just prior to Challenge (100)))/((Percent Change in Airway Resistance after Solvent -Administration)-(Value just prior to Challenge (100)))]× 100 [formula]
A solution of a test metalloproteinase inhibitor (Compound No. 22: 15 mg/kg or 30 mg/kg) in water for injection or the solvent alone as a negative control was administered to each animal subcutaneously twice, i.e., 24 hours and 2 hours prior to elicitation.
Data set [2] deals with Type IV Allergic Dermatitis. Nature of the data set: Type IV allergic dermatitis (oxazolone-induced auricle edema). Format: in vivo, Mice (male, Balb/c). As to the method: Mice (male, Balb/c, 6 weeks old, 20 to 25 g) were sensitized by painting a 3% solution of oxazolone (100 µL) abdominally. Six days after sensitization, a 0.5% solution of oxazolone in acetone was painted on both sides of a right ear at a dose of 10 µL to raise auricle edema. An untreated group was painted with the solvent (acetone) alone onto both sides of a left ear of the same mouse at 10 µL. At 24 hours after edema-induction, each mouse was sacrificed with ether and an equivalent each of right and left auricles was stamped out with a puncher (diameter: 6 mm). Both left and right auricle sections were measure for their weight and each percent edema was calculated (Kazuo Ouchi (Ed.), "Seibutsu Yakukagaku Jikken Koza, Ensho To Allergy (Inflammation and Allergy) I-1", 1993, Hirokawa Publishing Co., Japan) Percent Edema (%) =((Right Auricular Segment Weight - Left Auricular Segment Weight))/(Left Auricular Segment Weight)× 100 [formula]
A solution of a test metalloproteinase inhibitor (Compound No. 8, 50 mg/mL) in ethanol was painted onto both sides of a right auricle at 10 µL per side twice, i.e., 0.5 hr prior to edema-induction and 6 hours after edema-induction. The solvent (ethanol) alone was painted on a left auricle at the same dose ([…]). […]

Data set [3] deals with infiltration of leukocytes into an air pouch. The experiment in a line: Allergic inflammation model (air pouch model). The class given is in vivo, rats. The settings on record: 10 mg/kg or 30 mg/kg into the air pouch or intraperitoneally; 8 hours after the second challenge; dexamethasone 0.1 mg/kg as comparison. As to the method:
Compound No. 8 was dissolved in physiological saline to make the final concentration 2.5 mg/mL (equal to 10 mg/kg) or 7.5 mg/mL (equal to 30 mg/kg) and administered into an air pouch of animals or intraperitoneally at a dose of 4 mL/kg. Dexamethasone was also dissolved in physiological saline to make the final concentration 25 µg/mL (equal to 0.1 mg/kg) and administered into an air pouch of animals at a dose of 4 mL/kg. Administration into such an air pouch was conducted simultaneously with the second challenge while the intraperitoneal administration was 30 minutes prior to the second challenge. Acetylated bovine serum albumin diazo-coupled with arsanilic acid (ABA-AcBSA) was prepared according to the Ouchi et al. and Tabachnick et al. methods as disclosed in Ouchi et al., "Seibutsu Yakukagaku Jikken Koza, Ensho To Allergy (Inflammation and Allergy) I-2", pp.194 to 206, Hirokawa Publishing Co., Japan and Tabachnick et al., The Journal of Biological Chemistry, 234: 1726- 1730, 1959, and mixed with a Freund's complete adjuvant (Difco) at an equal ratio. The mixture was treated using a connection-type glass syringe to form an emulsion which was used as a sensitizing solution. […] The retrieved exudates were measured by a dye-exclusion method using a haematocytometer and the number of exudated leukocytes were counted.

[4] abbreviates: suffocative death due to cyanosis just after elicitation, Compound No. 8 15 mg/kg s.c., prednisolone 10 mg/kg orally, 24 and 2 hours prior to elicitation.

As to `CNC(=O)[C@H](Cc1ccc(NC(=N)N)cc1)NC(=O)[C@H](CC(C)C)C(CCCc1ccccc1)C(=O)NO` (single isomer, unassigned) [Compound No. 8, N-[4-(N-hydroxyamino)-2(R)-isobutyl-3(R or S)-(3-phenyltrimethylene)succinyl]-L-4'-guanidophenylalanine-N-methylamide 1 acetate], the “airway resistance (FIG. 11)” value in data set [1] (15 mg/kg s.c. 24 hours and 2 hours prior to elicitation, IAR 1 hour and LAR 6 hours post-elicitation) is reported as “significant reduction of the increased airway resistance”. Further, in data set [1] (setting [4]), the “% Mortality” value is 0.0% and the “(Dead Animals)/(Tested Animals)” value is 0/10. Also, in data set [2] (50 mg/mL in ethanol, 10 µL per side painted on right auricle 0.5 hr prior to and 6 hours after edema-induction, 24 hours after induction), the “therapeutic potency on the development of auricle edemas (FIG. 12)” value is on record as “amelioration of auricle edemas”. Further, the “effect of the compound alone on auricles (unsensitized group, FIG. 12)” value in data set [2] (unsensitized mice, 50 mg/mL in ethanol painted on auricle) was “almost free of swelling and/or thinning”. The “infiltration of leukocytes into an air pouch (FIG. 13)” value in data set [3] is “significantly inhibited”.

These data come from patent EP1101496A1, “THERAPEUTIC AGENTS FOR ALLERGIC DISEASES” (FUJI YAKUHIN KOGYO KABUSHIKI KAISHA, priority 1998, dated 2000).
